# Columns and labels:
# Assay in all cases: radiometric filter-binding kinase assay, Kinase HotSpot
# Settings in all cases: compound 0.5 µM; ATP 10 µM
# [1] = target: BRSK1 (human) (UniProt Q8TDC3)
# [2] = target: EPHA2 (human) (UniProt P29317)
# [3] = target: CDK2 CCNA2 (human) (UniProt P24941+P20248)
# [4] = target: TBK1 (human) (UniProt Q9UHD2)
# [5] = target: PRKCI (human) (UniProt P41743)
# [6] = target: EPHA7 (human) (UniProt Q15375)
# [7] = target: PRKX (human) (UniProt P51817)
# [8] = target: CLK4 (human) (UniProt Q9HAZ1)
# [9] = target: PAK1 (human) (UniProt Q13153)
# [10] = target: AURKB (human) (UniProt Q96GD4)
# [11] = target: MARK2 (human) (UniProt Q7KZI7)
# [12] = target: CSNK1G1 (human) (UniProt Q9HCP0)
# [13] = target: PNCK (human) (UniProt Q6P2M8)
# [14] = target: AKT1 (human) (UniProt P31749)
# [15] = target: WNK2 (human) (UniProt Q9Y3S1)
# [16] = target: PLK1 (human) (UniProt P53350)
# [17] = target: NTRK1 (human) (UniProt P04629)
# [18] = target: STK39 (human) (UniProt Q9UEW8)
# [19] = target: CSNK1A1 (human) (UniProt P48729)
# [20] = target: ACVRL1 (human) (UniProt P37023)
# [21] = target: NEK4 (human) (UniProt P51957)
# [22] = target: TAOK3 (human) (UniProt Q9H2K8)
# [23] = target: MATK (human) (UniProt P42679)
# [24] = target: RPS6KB2 (human) (UniProt Q9UBS0)
# [25] = target: TNK2 (human) (UniProt Q07912)
# [26] = target: MAP4K5 (human) (UniProt Q9Y4K4)
# [27] = target: FYN (human) (UniProt P06241)
# [28] = target: PAK6 (human) (UniProt Q9NQU5)
# [29] = target: MERTK (human) (UniProt Q12866)
# [30] = target: LRRK2 (human) (UniProt Q5S007)
# [31] = target: GSG2 (human) (UniProt Q8TF76)
# [32] = target: CDK9 CCNT1 (human) (UniProt P50750+O60563)
# [33] = target: MST4 (human) (UniProt Q9P289)
# [34] = target: MUSK (human) (UniProt O15146)
# [35] = target: CSNK2A1 (human) (UniProt P68400)
# [36] = target: LIMK1 (human) (UniProt P53667)
# [37] = target: MET (human) (UniProt P08581)
# [38] = target: GSK3B (human) (UniProt P49841)
# [39] = target: CDC42BPB (human) (UniProt Q9Y5S2)
# [40] = target: PAK4 (human) (UniProt O96013)
# [41] = target: EPHB2 (human) (UniProt P29323)
# [42] = target: IKBKB (human) (UniProt O14920)
# Chain of GSG2 (human) (Q8TF76 whole entry, looked up): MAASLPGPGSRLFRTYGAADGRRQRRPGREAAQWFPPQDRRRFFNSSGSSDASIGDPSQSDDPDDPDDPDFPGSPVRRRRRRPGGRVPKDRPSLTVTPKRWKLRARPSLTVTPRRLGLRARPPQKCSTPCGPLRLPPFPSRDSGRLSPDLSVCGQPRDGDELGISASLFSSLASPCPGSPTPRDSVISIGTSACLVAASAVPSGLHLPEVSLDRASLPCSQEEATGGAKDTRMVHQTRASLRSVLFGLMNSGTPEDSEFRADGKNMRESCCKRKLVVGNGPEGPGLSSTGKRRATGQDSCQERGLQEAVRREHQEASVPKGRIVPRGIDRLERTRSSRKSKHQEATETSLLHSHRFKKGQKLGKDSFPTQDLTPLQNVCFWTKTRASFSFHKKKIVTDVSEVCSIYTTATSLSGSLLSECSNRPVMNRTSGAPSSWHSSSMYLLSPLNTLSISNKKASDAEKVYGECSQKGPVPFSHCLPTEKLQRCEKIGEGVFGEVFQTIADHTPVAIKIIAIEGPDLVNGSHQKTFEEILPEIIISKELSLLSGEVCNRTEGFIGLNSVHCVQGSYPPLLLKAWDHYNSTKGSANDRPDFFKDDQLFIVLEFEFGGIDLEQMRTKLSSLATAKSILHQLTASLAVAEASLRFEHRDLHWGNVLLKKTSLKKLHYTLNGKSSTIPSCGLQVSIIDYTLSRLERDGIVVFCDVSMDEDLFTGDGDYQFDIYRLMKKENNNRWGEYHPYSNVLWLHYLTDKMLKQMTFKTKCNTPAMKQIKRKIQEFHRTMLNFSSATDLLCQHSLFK
# Chain of EPHB2 (human) (P29323 whole entry, looked up): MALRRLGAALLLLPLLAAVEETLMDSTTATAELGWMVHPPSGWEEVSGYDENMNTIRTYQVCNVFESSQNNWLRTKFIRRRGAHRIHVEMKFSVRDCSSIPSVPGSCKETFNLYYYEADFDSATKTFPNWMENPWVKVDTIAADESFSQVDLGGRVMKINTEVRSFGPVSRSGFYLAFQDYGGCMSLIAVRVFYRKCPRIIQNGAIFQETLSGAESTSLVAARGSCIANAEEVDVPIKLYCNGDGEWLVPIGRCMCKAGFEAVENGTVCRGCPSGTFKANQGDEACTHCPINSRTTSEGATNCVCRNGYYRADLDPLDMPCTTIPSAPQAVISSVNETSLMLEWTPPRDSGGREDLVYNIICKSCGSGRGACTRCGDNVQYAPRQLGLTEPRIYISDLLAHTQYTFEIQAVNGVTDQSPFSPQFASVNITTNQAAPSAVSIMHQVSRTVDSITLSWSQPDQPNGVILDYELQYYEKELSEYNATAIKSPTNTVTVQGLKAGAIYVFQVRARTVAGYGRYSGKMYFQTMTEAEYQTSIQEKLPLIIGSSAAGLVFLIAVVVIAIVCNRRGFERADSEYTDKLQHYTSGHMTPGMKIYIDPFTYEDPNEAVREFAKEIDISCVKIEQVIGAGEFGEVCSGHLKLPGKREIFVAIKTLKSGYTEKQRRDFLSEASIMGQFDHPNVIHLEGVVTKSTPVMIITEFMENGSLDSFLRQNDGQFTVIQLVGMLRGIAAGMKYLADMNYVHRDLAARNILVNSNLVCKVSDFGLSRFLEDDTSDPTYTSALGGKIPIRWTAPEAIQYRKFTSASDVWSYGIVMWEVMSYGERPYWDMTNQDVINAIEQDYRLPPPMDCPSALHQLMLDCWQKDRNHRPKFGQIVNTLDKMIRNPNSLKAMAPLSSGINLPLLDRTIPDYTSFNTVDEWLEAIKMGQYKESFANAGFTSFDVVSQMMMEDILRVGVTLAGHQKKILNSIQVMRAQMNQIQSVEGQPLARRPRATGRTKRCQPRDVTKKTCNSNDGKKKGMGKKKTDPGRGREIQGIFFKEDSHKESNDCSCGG
# Chain of BRSK1 (human) (Q8TDC3 whole entry, looked up): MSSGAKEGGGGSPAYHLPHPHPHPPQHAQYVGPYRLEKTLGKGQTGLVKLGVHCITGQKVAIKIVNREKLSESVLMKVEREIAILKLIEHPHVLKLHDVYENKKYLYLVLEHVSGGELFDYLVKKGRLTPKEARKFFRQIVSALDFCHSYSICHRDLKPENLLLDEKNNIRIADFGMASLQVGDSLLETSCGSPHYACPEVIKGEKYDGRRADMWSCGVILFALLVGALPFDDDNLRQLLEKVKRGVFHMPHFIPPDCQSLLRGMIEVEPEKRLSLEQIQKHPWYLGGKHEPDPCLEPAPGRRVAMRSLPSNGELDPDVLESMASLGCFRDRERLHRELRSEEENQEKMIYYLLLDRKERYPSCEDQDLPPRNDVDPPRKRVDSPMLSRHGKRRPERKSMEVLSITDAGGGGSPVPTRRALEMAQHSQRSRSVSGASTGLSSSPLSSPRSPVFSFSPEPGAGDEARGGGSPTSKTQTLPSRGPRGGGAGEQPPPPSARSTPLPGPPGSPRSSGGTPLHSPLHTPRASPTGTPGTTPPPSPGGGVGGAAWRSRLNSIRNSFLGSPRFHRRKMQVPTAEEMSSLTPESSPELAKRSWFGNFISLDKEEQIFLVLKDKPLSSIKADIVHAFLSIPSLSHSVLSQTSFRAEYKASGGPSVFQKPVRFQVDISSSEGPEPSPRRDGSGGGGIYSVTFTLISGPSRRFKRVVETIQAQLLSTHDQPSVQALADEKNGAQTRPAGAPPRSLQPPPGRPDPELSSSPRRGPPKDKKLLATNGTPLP
# Chain of MST4 (human) (Q9P289 whole entry, looked up): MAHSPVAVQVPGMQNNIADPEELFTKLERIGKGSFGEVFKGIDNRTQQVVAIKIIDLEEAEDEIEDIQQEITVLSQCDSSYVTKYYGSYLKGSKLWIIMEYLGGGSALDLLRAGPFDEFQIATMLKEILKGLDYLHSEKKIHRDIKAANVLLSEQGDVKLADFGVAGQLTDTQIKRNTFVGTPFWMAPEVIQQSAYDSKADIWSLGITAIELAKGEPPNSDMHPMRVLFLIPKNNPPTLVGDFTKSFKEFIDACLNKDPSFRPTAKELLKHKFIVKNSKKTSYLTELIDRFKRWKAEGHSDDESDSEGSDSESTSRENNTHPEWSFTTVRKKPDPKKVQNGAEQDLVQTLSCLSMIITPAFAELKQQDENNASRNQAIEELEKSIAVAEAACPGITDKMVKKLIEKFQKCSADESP
# Chain of CSNK1A1 (human) (P48729 whole entry, looked up): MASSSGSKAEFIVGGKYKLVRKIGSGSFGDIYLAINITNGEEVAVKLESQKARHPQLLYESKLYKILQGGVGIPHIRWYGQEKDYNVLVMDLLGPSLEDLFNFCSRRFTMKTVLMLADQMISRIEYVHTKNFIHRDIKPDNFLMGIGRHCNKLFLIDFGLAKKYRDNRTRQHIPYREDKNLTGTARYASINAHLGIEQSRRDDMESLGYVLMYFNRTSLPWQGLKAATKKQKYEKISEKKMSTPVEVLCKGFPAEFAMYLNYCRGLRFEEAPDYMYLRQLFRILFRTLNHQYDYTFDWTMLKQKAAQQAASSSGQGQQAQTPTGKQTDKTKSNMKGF
# Chain of EPHA7 (human) (Q15375 whole entry, looked up): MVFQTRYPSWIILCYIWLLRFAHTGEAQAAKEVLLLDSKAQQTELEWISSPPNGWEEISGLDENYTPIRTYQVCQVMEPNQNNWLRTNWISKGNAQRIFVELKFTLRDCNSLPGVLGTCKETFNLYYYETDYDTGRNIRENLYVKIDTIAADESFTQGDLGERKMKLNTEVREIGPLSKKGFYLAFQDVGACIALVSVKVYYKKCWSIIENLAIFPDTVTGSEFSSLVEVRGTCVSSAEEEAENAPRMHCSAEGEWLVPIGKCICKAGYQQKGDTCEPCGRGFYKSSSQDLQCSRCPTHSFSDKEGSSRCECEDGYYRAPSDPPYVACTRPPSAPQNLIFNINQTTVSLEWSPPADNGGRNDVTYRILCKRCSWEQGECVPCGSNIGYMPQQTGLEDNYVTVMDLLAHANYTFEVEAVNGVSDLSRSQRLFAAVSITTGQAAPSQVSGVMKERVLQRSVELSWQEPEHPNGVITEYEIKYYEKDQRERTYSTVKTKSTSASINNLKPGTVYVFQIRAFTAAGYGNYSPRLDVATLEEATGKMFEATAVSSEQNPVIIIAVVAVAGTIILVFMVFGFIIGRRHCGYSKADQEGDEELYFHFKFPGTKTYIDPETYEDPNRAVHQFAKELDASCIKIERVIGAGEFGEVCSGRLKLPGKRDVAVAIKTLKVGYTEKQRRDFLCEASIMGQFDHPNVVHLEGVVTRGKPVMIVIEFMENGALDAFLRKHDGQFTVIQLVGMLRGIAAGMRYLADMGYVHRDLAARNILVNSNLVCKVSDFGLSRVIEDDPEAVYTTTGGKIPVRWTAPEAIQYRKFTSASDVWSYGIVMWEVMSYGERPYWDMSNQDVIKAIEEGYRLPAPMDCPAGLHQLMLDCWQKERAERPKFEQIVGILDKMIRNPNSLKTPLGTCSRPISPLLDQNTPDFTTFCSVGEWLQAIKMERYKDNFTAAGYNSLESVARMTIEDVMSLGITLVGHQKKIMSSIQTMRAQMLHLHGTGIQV
# Chain of LIMK1 (human) (P53667 whole entry, looked up): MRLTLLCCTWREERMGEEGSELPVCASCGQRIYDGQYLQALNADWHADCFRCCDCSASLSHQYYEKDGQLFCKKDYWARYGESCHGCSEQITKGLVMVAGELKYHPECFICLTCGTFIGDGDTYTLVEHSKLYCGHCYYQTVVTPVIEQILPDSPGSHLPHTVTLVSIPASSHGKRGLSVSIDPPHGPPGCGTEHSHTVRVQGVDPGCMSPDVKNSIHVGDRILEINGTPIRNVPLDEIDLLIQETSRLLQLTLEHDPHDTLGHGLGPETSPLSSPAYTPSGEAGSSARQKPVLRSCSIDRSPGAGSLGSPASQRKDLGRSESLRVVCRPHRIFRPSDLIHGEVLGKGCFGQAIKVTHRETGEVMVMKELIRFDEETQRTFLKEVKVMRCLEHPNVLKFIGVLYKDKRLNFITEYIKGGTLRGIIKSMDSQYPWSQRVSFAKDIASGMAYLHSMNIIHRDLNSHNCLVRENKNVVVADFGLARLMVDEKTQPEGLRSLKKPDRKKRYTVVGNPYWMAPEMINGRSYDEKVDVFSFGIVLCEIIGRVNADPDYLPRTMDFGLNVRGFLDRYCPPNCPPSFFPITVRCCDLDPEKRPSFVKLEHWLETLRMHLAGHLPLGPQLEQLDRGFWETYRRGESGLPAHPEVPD
smiles,measurement,setting,value
N#C/C(=C1/Nc2ccccc2S1)c1ccnc(NCCc2cccnc2)n1,residual activity,[1],92.7%
same,residual activity,[2],103%
same,residual activity,[3],94.4%
same,residual activity,[4],100%
same,residual activity,[5],94.4%
same,residual activity,[6],99.4%
same,residual activity,[7],96.4%
same,residual activity,[8],43.8%
same,residual activity,[9],96.5%
same,residual activity,[10],94%
same,residual activity,[11],97.9%
same,residual activity,[12],88.8%
same,residual activity,[13],100%
same,residual activity,[14],104%
same,residual activity,[15],106%
same,residual activity,[16],91.4%
same,residual activity,[17],106%
same,residual activity,[18],96.9%
same,residual activity,[19],80%
same,residual activity,[20],102%
same,residual activity,[21],89.1%
same,residual activity,[22],87.5%
same,residual activity,[23],89.8%
same,residual activity,[24],96.5%
same,residual activity,[25],42.8%
same,residual activity,[26],87.5%
same,residual activity,[27],93.1%
same,residual activity,[28],97.6%
same,residual activity,[29],88.9%
same,residual activity,[30],83.4%
same,residual activity,[31],31%
same,residual activity,[32],23.3%
same,residual activity,[33],104%
same,residual activity,[34],14.8%
same,residual activity,[35],22.1%
same,residual activity,[36],90.2%
same,residual activity,[37],105%
same,residual activity,[38],6.2%
same,residual activity,[39],95.2%
same,residual activity,[40],91.3%
same,residual activity,[41],112%
COc1cc2c(Nc3ccc(Br)cc3F)ncnc2cc1OCC1CCN(C)CC1,residual activity,[1],97.1%
same,residual activity,[2],21.5%
same,residual activity,[3],94.6%
same,residual activity,[4],99.9%
same,residual activity,[5],88.1%
same,residual activity,[6],31.8%
same,residual activity,[7],105%
same,residual activity,[8],84.3%
same,residual activity,[9],108%
same,residual activity,[10],95.5%
same,residual activity,[11],107%
same,residual activity,[12],100%
same,residual activity,[13],99.5%
same,residual activity,[14],94.7%
same,residual activity,[15],100%
same,residual activity,[16],98.5%
same,residual activity,[17],104%
same,residual activity,[18],97.4%
same,residual activity,[19],102%
same,residual activity,[20],104%
same,residual activity,[21],102%
same,residual activity,[22],98.4%
same,residual activity,[23],101%
same,residual activity,[24],101%
same,residual activity,[25],85.4%
same,residual activity,[26],37.1%
same,residual activity,[27],48.2%
same,residual activity,[28],105%
same,residual activity,[29],47.9%
same,residual activity,[30],113%
same,residual activity,[31],92.6%
same,residual activity,[33],102%
same,residual activity,[34],94.6%
same,residual activity,[42],87.7%
same,residual activity,[35],112%
same,residual activity,[36],88.1%
same,residual activity,[38],101%
same,residual activity,[39],98%
same,residual activity,[40],90.2%
same,residual activity,[41],24.4%
FC(F)(F)c1ccc(/C=C/c2nc(COc3ccc(CCCCn4ccnn4)cc3)co2)cc1,residual activity,[1],103%
same,residual activity,[2],102%
same,residual activity,[3],87.9%
same,residual activity,[4],101%
same,residual activity,[5],92.6%
same,residual activity,[6],95.2%
same,residual activity,[7],95.3%
same,residual activity,[8],101%
same,residual activity,[9],104%
same,residual activity,[10],98%
same,residual activity,[11],105%
same,residual activity,[12],100%
same,residual activity,[13],96.6%
same,residual activity,[14],93.2%
same,residual activity,[15],95.9%
same,residual activity,[16],98.3%
same,residual activity,[17],103%
same,residual activity,[18],88.3%
same,residual activity,[19],98.4%
same,residual activity,[20],103%
same,residual activity,[21],90%
same,residual activity,[22],93%
same,residual activity,[23],95%
same,residual activity,[24],103%
same,residual activity,[26],96.5%
same,residual activity,[27],97%
same,residual activity,[28],100%
same,residual activity,[29],97.9%
same,residual activity,[30],94.8%
same,residual activity,[31],105%
same,residual activity,[32],99.5%
same,residual activity,[33],98%
same,residual activity,[34],104%
same,residual activity,[42],98.6%
same,residual activity,[35],97.5%
same,residual activity,[36],99.2%
same,residual activity,[37],95.1%
same,residual activity,[38],100%
same,residual activity,[39],100%
same,residual activity,[40],107%
same,residual activity,[41],98.3%

# Source: the kinase profiling compilation of Christmann-Franck et al. (2016)
